What was measured:
[1] = target: T1, human serum albumin (HSA) (Homo sapiens, UniProt P02768); assay: Three-dimensional fluorescence spectra of HSA; format: binding; details: HSA:compound 1:1, 4 μM, 25 °C
T1 construct: purchased Sigma (St. Louis, MO, USA)
Source text: A useful method for studying drug-HSA interactions is three-dimensional fluorescence spectroscopy, which can offer information about the structural changes to the polypeptide backbone structure and the microenvironment polarity around the Trp and Tyr residues. Peak a (λex = λem) is […], while peak b (2λex = λem) is […]. The change at peak 1 (280/339 nm) reflects a change in the polarity of the microenvironment around the Trp and Tyr residues, and peak 2 (230/336 nm) characterizes the polypeptide backbone structure. […] The fluorescence intensities of both peaks decreased after the addition of derivatives 3a–3d, with a more pronounced decrease observed in the fluorescence intensity of peak 2. […] The changes observed in the 3D spectra correlate with the results of earlier quenching fluorescence experiments. […]
The 3DF spectra of HSA were performed in the absence and presence of compounds 3a–3d using an excitation wavelength range of 200–350 nm and an emission wavelength range of 200–600 nm at room temperature (25 °C). The 3D spectra were recorded for 4 μM of HSA in a 2 mL buffer solution (100 mM NaCl and 10 mM Tris-HCl buffer pH = 7.4) and for the HSA:3a–3d complexes at a concentration ratio 1:1. […]

[2] = system: calf thymus DNA (ctDNA); assay: UV-Vis absorption titration with ctDNA (Benesi-Hildebrand); format: binding; details: Tris-HCl pH 7.4, room temperature
Source text: Changes in absorbance intensity (either hyperchromic or hypochromic) and a shift in the peak position (hypsochromicity or batochromicity) are typical spectral properties closely related to the interaction of a drug with DNA [60, 61]. […] The absorption spectra of compounds 3a–3d in the presence of increasing concentrations of ctDNA show hypochromicity (16–51%) and a slight hypsochromic shift (Δλ = 1–9 nm, 3a–3d), findings which indicate that the acridine derivatives have interacted with DNA (Table 3). […]
The binding constant Kb of compounds 3a–3d was determined using the modified Benesi-Hildebrand Equation (6):(6) A0/A−A0=εB/εB + DNA+εB/εB + DNA × 1/KbDNA, where A0 and A are the absorbances of the acridine derivatives in the absence and presence of ctDNA; εB and εB + DNA are the molar extinction coefficients of the acridine derivatives individually and in the bound complex, respectively; Kb is the binding constant; and [DNA] is the concentration of ctDNA. […]
UV-Vis absorption spectrum of the drug-ctDNA complexes were measured on a Varian Cary 100 Bio UV-Vis Spectrophotometer. The UV-Vis spectra of free compounds 3a–3d and drug-ctDNA complexes were recorded at the wavelength range of 220 to 600 nm. […]

T1 sequence (P02768 25-609): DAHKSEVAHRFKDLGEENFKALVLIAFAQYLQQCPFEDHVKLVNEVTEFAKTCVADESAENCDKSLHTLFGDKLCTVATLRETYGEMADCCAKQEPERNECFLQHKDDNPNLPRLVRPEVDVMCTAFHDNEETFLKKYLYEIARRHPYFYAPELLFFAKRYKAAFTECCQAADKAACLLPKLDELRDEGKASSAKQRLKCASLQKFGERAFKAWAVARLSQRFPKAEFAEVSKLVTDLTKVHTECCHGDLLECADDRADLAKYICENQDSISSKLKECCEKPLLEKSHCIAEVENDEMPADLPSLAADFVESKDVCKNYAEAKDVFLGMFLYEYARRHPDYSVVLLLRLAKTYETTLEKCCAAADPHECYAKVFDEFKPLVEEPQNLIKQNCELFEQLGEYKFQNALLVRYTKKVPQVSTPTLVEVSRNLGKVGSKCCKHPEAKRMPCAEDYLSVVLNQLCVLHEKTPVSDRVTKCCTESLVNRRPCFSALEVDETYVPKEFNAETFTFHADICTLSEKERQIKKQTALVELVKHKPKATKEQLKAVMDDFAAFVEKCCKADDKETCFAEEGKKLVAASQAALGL

blue shift of peak 1 (280/339 nm) [1]	blue shift of peak 2 (230/336 nm) [1]	Compound	Kb, binding constant with ctDNA [2]
8 nm	10 nm	O=C(N/N=C/c1cccc2cc3ccccc3nc12)c1ccccc1 [3a, N′-[(E)-(Acridin-4-yl)methylidene]benzohydrazide]	–
–	–	O=C(N/N=C/c1cccc2cc3ccccc3nc12)c1ccc(F)cc1 [3b, N′-[(E)-Acridin-4-ylmethylidene]-4-fluorobenzohydrazide]	3180 M⁻¹

Source: paper PMC9100673, “Acridine Based N-Acylhydrazone Derivatives as Potential Anticancer Agents: Synthesis, Characterization and ctDNA/HSA Spectroscopic Binding Properties” (Molecules, 2022)
